These results are taken from US7091351B2, “Vanadium compounds for treating cancer” (Parker Hughes Institute, priority 1998, dated 2006).

Common to all, as to type: cell-based, human
Assay [1] concerns Tera-2 testicular cancer cells. Kind of assay: MTT cytotoxicity assay of vanadocenes, TERA-2 cells. Conditions: 24 h, 1.9-250 μM. Here is the method: (§1) Human testicular cancer cell lines, Tera-2 (embryonal carcinoma) and Ntera-2 (pluripotent embryonal carcinoma) were obtained from the American Type Culture Collection (ATCC) (Rockeville, Md.) and propagated in T-25, T-75, or T-150 cm^2 tissue culture flasks (Corning Corp., Corning, N.Y.) in McCoy's 5A medium and Dulbecco's modified Eagle's medium respectively. Both media were supplemented with 10% fetal calf serum (FCS), 4 mM glutamine, 100 U/ml penicillin G, and […] streptomycin sulfate. All tissue culture reagents were obtained from Life Technologies Inc. (GIBCO-BRL), Gaithersburg, Md. Cell lines were cultivated for a minimum of two passages after thawing prior to experimentation. Other cell lines that were used in this study were the human B-lineage acute lymphoblastic leukemia (ALL) cell line NALM-6. Uckun, F. M., Evans, W. E., Forsyth, C. J., Waddick, K. G., Tuel-Ahlgren, L., Chelstrom, L. M., Burkhardt, A., Bolen, J., Myers, D. E. Biotherapy of B-cell precursor leukemia by targeting genistein to CD19-associated tyrosine kinase. Science (Washington DC) 267:886–91, 1995; T-lineage ALL cell line MOLT-3, Waurzyniak, B., Shneider, E. A., Tumer, N., Yanishevski, Y., Gunther, R., Chelstrom, L., Wendorf, H., Myers, D. E., Irvin, J. D., Messinger, Y., Ek, O., Zeren, T., Chandan-Langlie, M., Evans, W. E., Uckun, F. M. In vivo toxicity, pharmacokinetics, and antileukemic activity of TXU (anti-CD7)-pokeweed antiviral protein immunotoxin. Clinical Cancer Research 3:881–890, 1997; AML cell line HL-60, Perentesis, J. P., Waddick, K. G., Bendel, A. E., Shao, Y., Warman, B. E., Chandan-Langlie, M., and Uckun, F. M. Induction of apoptosis in multi-drug resistant andradiation-resistant acute myeloid leukemia cells by a recombinant fusion toxin directed against the granulocyte macrophage colony stimulating factor receptor. Clin. Cancer Res. 3:347–355, 1997; breast cancer cell lines MDA-MB-231 and BT-20, Uckun, F. M., Narla, R. K., Jun, X., Zeren, T., Venkatachalam, T., Waddick, K. G., Rostostev, A., Myers, D. E. Cytotoxic activity of EGF-genstein against breast cancer cells. Clin. Cancer Res. 4:901–912, 1998; glioblastoma cell lines U87 and U373, Narla, R. K., Liu, X., Myers, D. E., and Uckun, F. M. 4-(3′-Bromo-4′hydroxylphenyl)-amino-6,7-dimethoxyquinazoline (WHI-P154): A novel quinazoline derivative with potent cytotoxic activity against human glioblastoma cells. Clin. Cancer Res. 4:1405–1414, 1998.
(§2) MTT (3-[4,5-dimethyl thiazol-2-yl]-2,5-diphenyltetrazolium bromide)-based colorimetric assays were used for evaluation of the cytotoxicity of vanadocene compounds. Mosmann, T. Rapid colorimetric assay for cellular growth and survival: application to proliferation and cytotoxicity assays. J. Immunol. Methods, 65: 55–63, 1983. Briefly, cells were harvested with 0.125% (w/v) trypsin-0.02% EDTA (GIBCO-BRL) from exponential-phase maintenance cultures and centrifuged (300 g×5 min). After suspension and counting, cells were dispensed within triplicate 96-well tissue culture plates in 100 μl volumes. After 24 h incubation, the culture medium was discarded and replaced with 100 μl of fresh medium containing serial two-fold dilutions of drugs in medium to yield 1.9 μM to 250 μM. All compounds were reconstituted in DMSO to a concentration of 100 mM, and the stock solution was made fresh for each experiment. Control wells consisted of medium containing 0.25% of DMSO alone were used for solvent control. Culture plates were then incubated for 24 h before adding 10 μl of MTT solution (5 mg/ml in PBS) to each well. Wells containing only medium and MTT were used as controls for each plate. The tetrazolium/formazan reaction was allowed to proceed for 4 h at 37° C., and then 100 μl of the solubilization buffer (10% sodium dodecyl sulfate in 0.1% HCl) were added to all wells and mixed thoroughly to dissolve the dark blue formazan crystals. […]

In assay [2] the test system is Ntera-2 testicular cancer cells. Kind of assay: MTT cytotoxicity assay of vanadocenes, NTERA-2 cells. The conditions noted are these: 24 h, 1.9-250 μM. Here is the method: as §1, §2
In general terms: Tetrazolium assays rely on reduction of a dye to a coloured formazan, in cell work by metabolically active cells.

The subject of assay [3] is Tera-2 testicular cancer cells. Kind of assay: Flow cytometric TUNEL apoptosis assay, TERA-2 cells. Conditions: 24 h, TUNEL-positive nuclei. Here is the method:
(§3) A flow cytometric two-color terminal […] transferase (TdT)-mediated digoxigenin-uridine triphosphate (dUTP) nick-end labeling assay (TUNEL) was employed to detect apoptotic nuclei. Gavrieli, Y., Sherman, Y., Ben-Sasson, S. A. Identification of programmed cell death in situ via specific labeling of nuclear DNA fragmentation. J. Cell Biol., 119: 493–501, 1992. Exponentially growing cells (10^6/ml) were incubated in DMSO alone (0.1%) or treated with 100 μM each of the 16 vanadocenes (VDB, VDC, VMDC, VDI, VDA, VDCN, VDOCN, VDSCN, VDSeCN, VDT, VDCO, VDFe, VD(acac), VDH, VD(dpy), and VD(dtc) in 0.1% DMSO for 24 h. Cells were washed in PBS, fixed in 4% paraformaldehyde in PBS for 15 min on ice. Following two washings in PBS, they were permeabilized with 0.1% Triton X-100 in 0.1% sodium citrate for 2 min on ice, and washed twice in PBS. Labeling of exposed 3′-hydroxyl (3′-OH) ends of fragmented nuclear DNA was performed using TdT and fluorescein isothiocyanate (FITC)-conjugated dUTP according to the manufacturer's recommendations (Boehringer Mannheim, Indianapolis, Ind.). Cells were counterstained with 5 μg/ml PI. Control samples included: (i) untreated cells; (ii) cells incubated with the reaction mixture without the TdT enzyme. Cells were analyzed with a FACS Calibur flow cytometer (Becton Dickinson, Mountain View, Calif.). Relative DNA content (PI) was detected with band-pass filter 585/42, and dUTP incorporation (FITC) was detected with band-pass filter 530/30. Fluorescence was compensated for in the acquisition software using single-label control samples. Data were acquired in listmode, gated to 10,000 events per sample, and analyzed with the use of CELLQuest software program (Becton Dickinson). […] Vanadocene-induced apoptosis is shown by an increase in the number of cells staining with FITC-dUTP. The M1 and M2 gates were used to demarcate non-apoptotic and apoptotic PI-counterstained cell populations, respectively. TUNEL assays were performed using two testicular cell lines Tera-2 and Ntera-2 following exposure to each of the 16 vanadocenes. In other experiments, MC540 binding (as an early marker of apoptosis) and PI permeability (as a marker of advanced stage apoptosis) were simultaneously measured in human cancer cells 24 hours after exposure to vanadocenes, as previously described. Uckun, F. M., Narla, R. K., Jun, X., Zeren, T., Venkatachalam, T., Waddick, K. G., Rostostev, A., Myers, D. E. Cytotoxic activity of EGF-genstein against breast cancer cells. Clin. Cancer Res. 4:901–912, 1998. Vassilev, A., Ozer, Z., Navara, C., Mahajan, S., and Uckun, F. M. Bruton's tyrosine kinase as an inhibitor of the Fas/CD95 death-inducing signaling complex. J. Biol. Chem. 274:1646–56, 1999. Whole cells were analyzed using a FACStar Plus flow cytometer (Becton Dickinson, San Jose, Calif.). All analyses were done using 488 nm excitation from an argon laser. MC540 and PI emissions were split with a 600 nm short pass dichroic mirror and a 575 nm band pass filter was placed in front of one photomultiplier tube to measure MC540 emission and a 635 nm band pass filter was used for PI emission.
In general terms: A flow cytometer gives signals particle by particle.

Assay [4] relates to Ntera-2 testicular cancer cells. Kind of assay: Flow cytometric TUNEL apoptosis assay, NTERA-2 cells. Conditions: 24 h, TUNEL-positive nuclei. The protocol: as §3
Assay [5] has as its system U373 glioblastoma cells. Kind of assay: MTT cytotoxicity assay of vanadocenes, U373 cells. The conditions noted are these: 24 h. The protocol:
as §1, §2

A value given as a limit tells only on which side of the number the result lay.

For V(Me5Cp)OCl [VPMOC], the IC50 in assay [1] is greater than 250 µM; in assay [2] it was 77 µM. For the same compound, the “% Apoptosis at 100 μM TERA-2” value in assay [3] was 5 (5, 6) %. For the same compound, the “% Apoptosis at 100 μM NTERA-2” value in assay [4] is on record as 6 (6, 7) %.

As to VCp2(bpy)(O3SCF3)2 [VD(bpy)], the 50% inhibitory concentration (IC50) in assay [1] is 37 µM; in assay [2] it was 53 µM. Moreover, in assay [4], the “% Apoptosis at 100 μM NTERA-2” value is listed as 78 (77, 78) %.

With VCp2(NCS)2.0.5H2O [VDSCN], the IC50 in assay [1] was 23 µM; in assay [2], 17 µM; in assay [5], 19 µM. Also, the “% Apoptosis at 100 μM TERA-2” value in assay [3] was 64 (58, 69) %. The “% Apoptosis at 100 μM NTERA-2” value in assay [4] was 53 (46, 60) %.

As to VCp2(PH) [VDPH], the IC50 in assay [1] was greater than 250 µM; in assay [2] it was 61 µM. Besides, the “% Apoptosis at 100 μM TERA-2” value in assay [3] is given as 88 ± 3 (N = 3) %. Further, the “% Apoptosis at 100 μM NTERA-2” value in assay [4] was 90 ± 3 (N = 4) %.

In the case of `O=S(=O)(O)C(F)(F)F.O=S(=O)(O)C(F)(F)F.[V+2].c1cc[cH-]c1.c1cc[cH-]c1` [VDT, VCp2(O3SCF3)2], the results for the IC50 in assay [1] and in assay [2] were 76 µM and 137 µM, respectively. Moreover, the “% Apoptosis at 100 μM TERA-2” value in assay [3] was 71 (71, 71) %. Moreover, the “% Apoptosis at 100 μM NTERA-2” value in assay [4] was 55 ± 26 (N = 4) %.

Take ZrCp2Cl2 [ZDC]: the half-inhibitory concentration (IC50) in assay [1], in assay [2] and in assay [5] was greater than 250 µM each time.

On to MoCp2Cl2 [MDC], for which the IC50 in assay [1], in assay [2] and in assay [5] was greater than 250 µM each time.

In the case of `CC(=O)[CH-]C(C)=O.O=S(=O)([O-])C(F)(F)F.[V+4].c1cc[cH-]c1.c1cc[cH-]c1` [VD(acac), VCp2(acac)(O3SCF3)], the IC50 stood at 64 µM in assay [1] and 75 µM in assay [2]. The “% Apoptosis at 100 μM TERA-2” value in assay [3] came to 72 ± 17%. Further, the “% Apoptosis at 100 μM NTERA-2” value in assay [4] was 48 ± 13 (N = 3) %.

For the compound VCp2(H) [VDH], the 50% inhibitory concentration (IC50) in assay [1] was 118 µM; in assay [2] it was 125 µM; in assay [5] it was greater than 250 µM. Moreover, the “% Apoptosis at 100 μM TERA-2” value in assay [3] was 84 ± 2 (N = 3) %. Besides, the “% Apoptosis at 100 μM NTERA-2” value in assay [4] is reported as 20 ± 5 (N = 3) %.

`[O-]c1ccccc1[O-].[V+2].c1cc[cH-]c1.c1cc[cH-]c1` [VD(cat), Cp2V(cat)]: the IC50 in assay [1] was found to be 79 µM; in assay [2], 93 µM. Further, the “% Apoptosis at 100 μM NTERA-2” value in assay [4] is given as 12 (9, 15) %.

On to VCp2(NCO)2 [VDOCN], for which the results for the IC50 in assay [1] and in assay [2] were 31 µM and 63 µM, respectively. Besides, the “% Apoptosis at 100 μM TERA-2” value in assay [3] was 85 (80, 90) %. Besides, the “% Apoptosis at 100 μM NTERA-2” value in assay [4] was 95 (94, 96) %.

`[Cl-].[N-]=C=O.[V+2].c1cc[cH-]c1.c1cc[cH-]c1` [VDCO, VCp2(NCO)Cl]: the figures for the IC50 in assay [1] and in assay [2] were 50 µM and 90 µM, respectively. In addition, the “% Apoptosis at 100 μM TERA-2” value in assay [3] is 73 (67, 78) %. For the same compound, the “% Apoptosis at 100 μM NTERA-2” value in assay [4] is listed as 98 (97, 99) %.

Turning to HfCp2Cl2 [HDC], the IC50 in assay [1], in assay [2] and in assay [5] was greater than 250 µM throughout.

As for TiCp2Cl2 [TDC], the IC50 in assay [1], in assay [2] and in assay [5] was greater than 250 µM in each case.

Take `CC#N.[Cl-].[Cl-].[Cl-].[Cl-].[Cl-].[Fe+3].[V+4].c1cc[cH-]c1.c1cc[cH-]c1` [VDFe, VCp2Cl (CH3CN)(FeCl4)]: the IC50 amounted to 100 µM in assay [1] and 113 µM in assay [2]. The “% Apoptosis at 100 μM TERA-2” value in assay [3] was 85 (84, 87) %. The “% Apoptosis at 100 μM NTERA-2” value in assay [4] is 87 (81, 94) %.

With V(MeCp)2Cl2.0.5 H2O [VMDC], the figures for the 50% inhibitory concentration (IC50) in assay [1], in assay [2] and in assay [5] were 123 µM, 86 µM and 61 µM, respectively. The “% Apoptosis at 100 μM TERA-2” value in assay [3] was 45 (27, 61) %. Besides, the “% Apoptosis at 100 μM NTERA-2” value in assay [4] is 13 (13, 14) %.

On to `Cc1c(C)c(C)[c-](C)c1C.Cc1c(C)c(C)[c-](C)c1C.[Cl-].[Cl-].[V+2]` [VPMDC, V(Me5Cp)2Cl2], for which the 50% inhibitory concentration (IC50) in assay [1] turned out to be 127 µM; in assay [2] it was 44 µM; in assay [5], 172 µM. Besides, the “% Apoptosis at 100 μM TERA-2” value in assay [3] is 35 (35, 36) %. Moreover, in assay [4], the “% Apoptosis at 100 μM NTERA-2” value is 34 (33, 35) %.

Take VCp2(dtc) [VD(dtc)]: the half-inhibitory concentration (IC50) in assay [1] stood at 60 µM; in assay [2], 83 µM; in assay [5] it was 7 µM. For the same compound, the “% Apoptosis at 100 μM TERA-2” value in assay [3] was 83 (82, 84) %. In assay [4], the “% Apoptosis at 100 μM NTERA-2” value is recorded as 67 ± 13 (N = 3) %.

By IC50 is commonly meant the concentration at which inhibition is half-maximal. The low end stands for greater potency, the high end for weaker potency.
